Measurements reported in patent US20080312435A1, “Imine Compound” (TAISHO PHARMACEUTICAL CO., LTD., priority 2004, published 2008).

target: T1, human CB2 receptor (Homo sapiens, UniProt P34972); assay: Human CB2 receptor binding inhibition test ([3H]CP-55,940, CHO membrane fractions); conditions: [3H]CP-55,940, membrane fractions of CHO cells stably expressing human CB2 receptor, 25° C., 2 hours; read-out: CB2 IC50 (Inhibition of binding to human CB2 receptor)
T1 construct: expressed in transfected cells
Outline: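 Membranes from CHO-DHFR(−) cells stably expressing human CB2 used for [3H]CP-55,940 binding; filter-bound radioactivity counted by scintillation after washes with 0.1% BSA buffer. Nonspecific binding defined with 2.0 μM CP-55,940; IC50 for inhibition of specific binding.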

T1 sequence (P34972 whole entry): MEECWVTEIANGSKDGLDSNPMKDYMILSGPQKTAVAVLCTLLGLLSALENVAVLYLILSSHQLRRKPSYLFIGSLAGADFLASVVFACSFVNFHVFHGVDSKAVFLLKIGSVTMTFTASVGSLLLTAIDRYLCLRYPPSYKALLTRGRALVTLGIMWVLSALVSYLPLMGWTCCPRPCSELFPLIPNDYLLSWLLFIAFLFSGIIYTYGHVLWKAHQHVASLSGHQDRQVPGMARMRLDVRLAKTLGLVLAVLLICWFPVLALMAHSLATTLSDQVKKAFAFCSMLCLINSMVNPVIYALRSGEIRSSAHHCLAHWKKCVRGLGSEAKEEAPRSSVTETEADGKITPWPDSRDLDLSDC

Compound | IC50
Cc1c(C(C)(C)C)s/c(=N\C(=O)c2ccc([N+](=O)[O-])o2)n1CC1CC1 [compound 319] | 18.6 nM
Cc1c(C(C)(C)C)s/c(=N\C(=O)c2ccc3nonc3c2)n1CC1CC1 [compound 320] | 6.2 nM
Cc1c(C(C)(C)C)s/c(=N\C(=O)c2cccc3cnccc23)n1CC1CC1 [compound 321] | 2.3 nM
Cc1c(C(C)(C)C)s/c(=N\C(=O)c2cccc3cccnc23)n1CC1CC1 [compound 322] | 5.6 nM
Cc1c(C(C)(C)C)s/c(=N\C(=O)c2nccc3ccccc23)n1CC1CC1 [compound 324] | 2 nM
Cc1c(C(C)(C)C)s/c(=N\C(=O)c2cnnc3ccccc23)n1CC1CC1 [compound 325] | 13 nM
Cc1c(C(C)(C)C)s/c(=N\C(=O)c2cc3sccc3nc2C(F)(F)F)n1CC1CC1 [compound 328] | 11.8 nM
Cc1c(C(C)(C)C)s/c(=N\C(=O)C(C)(C)C)n1CC1CC1 [compound 330] | 13.8 nM
Cc1c(C(C)(C)C)s/c(=N\C(=O)CCC(F)(F)F)n1CC1CC1 [compound 335] | 5.5 nM
Cc1c(C(C)(C)C)s/c(=N\C(=O)C(F)(F)C(F)(F)C(F)(F)F)n1CC1CC1 [compound 336] | 2.9 nM
COCCn1c(C)c(C(C)(C)C)s/c1=N\C(=O)C(F)(F)C(F)(F)C(F)(F)F [compound 338] | 9.1 nM
CC(=O)OC(C(=O)/N=c1\sc(C(C)(C)C)c(C)n1CC1CC1)c1ccccc1 (stereo not shown) [compound 341] | 5.3 nM
COCCn1c(C)c(C(C)(C)C)s/c1=N\C(=O)c1cccc(C(F)(F)F)c1 [compound 344] | 12.2 nM
COCCn1c(C)c(C(C)(C)C)s/c1=N\C(=O)c1cccc(Br)c1 [compound 345] | 12.7 nM
COCCn1c(C)c(C(C)(C)C)s/c1=N\C(=O)c1cccc(I)c1 [compound 346] | 13.5 nM
COCCn1c(C)c(C(C)(C)C)s/c1=N\C(=O)c1cc(Br)ccc1F [compound 348] | 3.8 nM
COCCn1c(C)c(C(C)(C)C)s/c1=N\C(=O)c1cc(F)c(Cl)cc1Cl [compound 349] | 1.9 nM
COCCn1c(C)c(C(C)(C)C)s/c1=N\C(=O)c1cccc(OC(F)(F)C(F)F)c1 [compound 350] | 5.2 nM
COCCn1c(C)c(C(C)(C)C)s/c1=N\C(=O)c1cc(F)ccc1C [compound 351] | 2.2 nM
Cc1c(Cl)s/c(=N\C(=O)c2cccc(C(F)(F)F)c2F)n1CC1CC1 [compound 365] | 3.4 nM
O=C(/N=c1\sc2ncccc2n1CC1CC1)c1cccc(C(F)(F)F)c1F [compound 382] | 17 nM
Cn1c(C(C)(C)C)c/c(=N\C(=O)c2cccc(Cl)c2Cl)n1CC1CCC1 [compound 481] | 3.4 nM
Cc1c(C(=O)/N=c2\cc(C(C)(C)C)n(C)n2CC2CCC2)cccc1C(F)(F)F [compound 483] | 8.3 nM
Cn1c(C(C)(C)C)c/c(=N\C(=O)c2cccc(Cl)c2Cl)n1CC1CCCC1 [compound 484] | 2.7 nM
CCOCCn1/c(=N/C(=O)c2cccc(C(F)(F)F)c2C)cc(C(C)(C)C)n1C [compound 489] | 6 nM
CC(C)OCCn1/c(=N/C(=O)c2cccc(Cl)c2Cl)cc(C(C)(C)C)n1C [compound 492] | 5 nM
Cc1c(C(=O)/N=c2\cc(C(C)(C)C)n(C)n2CCOC(C)C)cccc1C(F)(F)F [compound 494] | 2.1 nM
COc1ccc(C(F)(F)F)cc1C(=O)/N=c1\sc(C(C)(C)C)nn1CC1CC1 [compound 509] | 5.9 nM
CC(C)(C)c1nn(CC2CC2)/c(=N/C(=O)c2cccc(C(F)(F)F)c2F)o1 [compound 514] | 2.6 nM

target: T2, human CB1 receptor (Homo sapiens, UniProt P21554); assay: Human CB1 receptor binding inhibition test; conditions: CHO-DHFR(−) cells stably expressing human CB1 receptor, same manner as Experimental Example 1
T2 construct: expressed in transfected cells
Description: Human CB1 Receptor Binding Inhibition Test
The CHO-DHFR(−) cells capable of stably expressing a CB1 receptor were prepared in the same manner as in Experimental Example 1. The binding test to the human CB1 receptor was performed to obtain 50% inhibitory concentration (IC50 value) of a test compound.

T2 sequence (P21554 whole entry): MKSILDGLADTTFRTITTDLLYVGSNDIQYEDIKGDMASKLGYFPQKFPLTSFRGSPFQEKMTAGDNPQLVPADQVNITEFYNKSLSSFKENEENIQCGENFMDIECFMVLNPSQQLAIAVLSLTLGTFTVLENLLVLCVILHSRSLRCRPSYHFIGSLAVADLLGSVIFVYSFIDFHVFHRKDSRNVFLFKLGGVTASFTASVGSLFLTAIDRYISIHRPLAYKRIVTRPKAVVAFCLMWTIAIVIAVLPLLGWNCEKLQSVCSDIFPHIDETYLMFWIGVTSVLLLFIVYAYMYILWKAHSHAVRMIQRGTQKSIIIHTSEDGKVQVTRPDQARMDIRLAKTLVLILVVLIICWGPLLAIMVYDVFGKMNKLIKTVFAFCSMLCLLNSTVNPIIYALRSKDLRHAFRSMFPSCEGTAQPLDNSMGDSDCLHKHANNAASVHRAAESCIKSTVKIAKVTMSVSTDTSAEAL

Compound | IC50
Cc1c(C(C)(C)C)s/c(=N\C(=O)c2nccc3ccccc23)n1CC1CC1 [compound 324] | 353 nM
CC(C)OCCn1/c(=N/C(=O)c2cccc(Cl)c2Cl)cc(C(C)(C)C)n1C [compound 492] | 265 nM
Cc1c(C(=O)/N=c2\cc(C(C)(C)C)n(C)n2CCOC(C)C)cccc1C(F)(F)F [compound 494] | 279 nM

system: not given; assay: not given; conditions: not given

Compound | melting point
Cc1c(C(C)(C)C)s/c(=N\C(=O)c2ccc([N+](=O)[O-])o2)n1CC1CC1 [compound 319] | 129 to 130 °C
Cc1c(C(C)(C)C)s/c(=N\C(=O)c2ccc3nonc3c2)n1CC1CC1 [compound 320] | 139 to 141 °C
Cc1c(C(C)(C)C)s/c(=N\C(=O)c2cccc3cnccc23)n1CC1CC1 [compound 321] | 109 to 110 °C
Cc1c(C(C)(C)C)s/c(=N\C(=O)c2cccc3cccnc23)n1CC1CC1 [compound 322] | 193 to 195 °C
Cc1c(C(C)(C)C)s/c(=N\C(=O)c2cnnc3ccccc23)n1CC1CC1 [compound 325] | 140 to 141 °C
Cc1c(C(C)(C)C)s/c(=N\C(=O)c2cc3sccc3nc2C(F)(F)F)n1CC1CC1 [compound 328] | 147 to 149 °C
Cc1c(C(C)(C)C)s/c(=N\C(=O)C(C)(C)C)n1CC1CC1 [compound 330] | 102 to 104 °C
Cc1c(C(C)(C)C)s/c(=N\C(=O)CCC(F)(F)F)n1CC1CC1 [compound 335] | 102 to 103 °C
Cc1c(C(C)(C)C)s/c(=N\C(=O)C(F)(F)C(F)(F)C(F)(F)F)n1CC1CC1 [compound 336] | 147 to 148 °C
COCCn1c(C)c(C(C)(C)C)s/c1=N\C(=O)C(F)(F)C(F)(F)C(F)(F)F [compound 338] | 69 to 71 °C
CC(=O)OC(C(=O)/N=c1\sc(C(C)(C)C)c(C)n1CC1CC1)c1ccccc1 (stereo not shown) [compound 341] | 147 to 148 °C
COCCn1c(C)c(C(C)(C)C)s/c1=N\C(=O)c1cccc(C(F)(F)F)c1 [compound 344] | 172 to 173 °C
COCCn1c(C)c(C(C)(C)C)s/c1=N\C(=O)c1cccc(Br)c1 [compound 345] | 89 to 91 °C
COCCn1c(C)c(C(C)(C)C)s/c1=N\C(=O)c1cccc(I)c1 [compound 346] | 119 to 121 °C
COCCn1c(C)c(C(C)(C)C)s/c1=N\C(=O)c1cc(Br)ccc1F [compound 348] | 95 to 97 °C
COCCn1c(C)c(C(C)(C)C)s/c1=N\C(=O)c1cc(F)c(Cl)cc1Cl [compound 349] | 161 to 163 °C
COCCn1c(C)c(C(C)(C)C)s/c1=N\C(=O)c1cccc(OC(F)(F)C(F)F)c1 [compound 350] | 114 to 116 °C
COCCn1c(C)c(C(C)(C)C)s/c1=N\C(=O)c1cc(F)ccc1C [compound 351] | 106 to 107 °C
Cc1c(Cl)s/c(=N\C(=O)c2cccc(C(F)(F)F)c2F)n1CC1CC1 [compound 365] | 130 to 132 °C
O=C(/N=c1\sc2ncccc2n1CC1CC1)c1cccc(C(F)(F)F)c1F [compound 382] | 156 to 158 °C
Cn1c(C(C)(C)C)c/c(=N\C(=O)c2cccc(Cl)c2Cl)n1CC1CCC1 [compound 481] | 152.5 to 154 °C
Cc1c(C(=O)/N=c2\cc(C(C)(C)C)n(C)n2CC2CCC2)cccc1C(F)(F)F [compound 483] | 133 to 134 °C
Cn1c(C(C)(C)C)c/c(=N\C(=O)c2cccc(Cl)c2Cl)n1CC1CCCC1 [compound 484] | 168 to 169 °C
CCOCCn1/c(=N/C(=O)c2cccc(C(F)(F)F)c2C)cc(C(C)(C)C)n1C [compound 489] | 132 to 133 °C
COc1ccc(C(F)(F)F)cc1C(=O)/N=c1\sc(C(C)(C)C)nn1CC1CC1 [compound 509] | 82 to 83 °C
CC(C)(C)c1nn(CC2CC2)/c(=N/C(=O)c2cccc(C(F)(F)F)c2F)o1 [compound 514] | 108 to 110 °C
